Laboratory results: article PMC10529594, “Strasseriolides display in vitro and in vivo activity against trypanosomal parasites and cause morphological and size defects in Trypanosoma cruzi” (PLOS Neglected Tropical Diseases, 2023)

Assays:
[1] = test system: T. cruzi Tulahuen C4 trypomastigotes; experiment: T. cruzi trypomastigote viability assay (resazurin fluorescence); type: cell-based, Trypanosoma cruzi; settings: Tulahuen C4, 72 hours at 37°C
Method: (§1) Tulahuen T. cruzi trypomastigotes were recovered 6 days post infection from the supernatant of harvested infected L6 cells cultures after 3 hours at 37°C. 90 μL of parasite culture at a density of 5 × 10^6 cells in RPMI 1640 media were dispensed into 96 Nunc flat bottom assay plates containing 10 μL of each compound.
In the fluorescence assay, plates were incubated for 24 and 48 hours after which 10 μL of the resazurin solution were added to each well. Plates were further incubated for 24 hours and fluorescence was measured at 550/590 nm using a Tecan Infinite 200 microplate reader. […] Final maximal DMSO percentage in the well was 0.1% and compound concentrations ranged from 0.2 to 100 μM.

[2] = test system: T. cruzi trypomastigotes; experiment: T. cruzi trypomastigote viability / rate of action assay (CellTiter-Glo bioluminescence); type: cell-based, Trypanosoma cruzi; settings: for EC50: Trypanosoma cruzi; for EC90/EC50 / Hill slope: Trypomastigotes
Method: as §1
Parasite viability was assessed upon 24, 48 and 72 hour incubation at 37°C in 5% CO2 by adding 50 μL of CellTiter-Glo viability reagent to white 96-well microplates. After signal stabilization, bioluminescence was read. Compound concentrations ranged from 0.1 μM to 50 μM and final maximal DMSO percentage in the well was 0.05%. Results were normalized to […] control columns in each plate.

[3] = test system: T. cruzi Tulahuen C4 intracellular amastigotes; experiment: β-D-galactosidase transgenic T. cruzi assay (intracellular amastigotes in L6 cells, CPRG); type: cell-based; settings: Trypanosoma cruzi, TULAHUEN, L6; T. cruzi amastigotes, 96-hour treatment, 0.00152588 µM; read-out: Growth inhibition (%) Average
Method: The Trypanosoma cruzi Tulahuen strain used is a genetically modified strain that expresses the Escherichia coli β-galactosidase gene, lacZ [31]. It was kindly supplied by Marcel Kaiser (Swiss Tropical and Public Health Institute). The T. cruzi Tulahuen C4 strain was cultured in RPMI-1640 supplemented with 10% inactivated FBS (iFBS), 1.7 mM L-glutamine, 100 U/mL penicillin, and […] at 37°C and 5% CO2. L6 rat skeletal muscle cells were purchased from ATCC (reference CRL-1458) and used as host cells for infection with transgenic T. cruzi trypomastigotes. Epimastigotes were obtained by differentiation in LIT medium with 10% iFBS at 28°C from trypomastigote forms.
A Thermo Scientific Multidrop Combi dispenser was used to dispense 55 μL of T. cruzi infected L6 cells (2 ×10^3 cells per well) into 384-well Corning assay plates already containing 5 μL of each compound at concentrations ranging from 0.0015 to 50 μM and controls. The plates were incubated at 37°C for 96 hours upon which 15 μL of lysis buffer (0.5 mM CPRG, 0.5% NP40) were added to each well and further incubated for 4 hours in the dark. Absorbance at 585 nm was measured in a Perkin Elmer Envision plate reader.

Question: Which results are given for `C/C1=C\[C@H](C)C(=O)C[C@@H](O)/C(C)=C/[C@H](C)C[C@@H](C)CC[C@@H]([C@@H](C)C(=O)O)OC(=O)[C@@H](C)C1` [Strasseriolide C, strasseriolide C]?
Answer: EC50 ([1]; Trypanosoma cruzi, TULAHUEN, 72 h): 3.8 µM; EC50 [1]: 3.84 µM; RLU Average, trypomastigote viability ([2]; 24 h, 0.0976562 µM, untreated 165925): 163790 RLU; RLU Average, trypomastigote viability ([2]; 24 h, 0.195312 µM, untreated 165925): 163102 RLU; RLU Average, trypomastigote viability ([2]; 24 h, 0.390625 µM, untreated 165925): 158420 RLU; RLU Average, trypomastigote viability ([2]; 24 h, 0.78125 µM, untreated 165925): 147331 RLU; RLU Average, trypomastigote viability ([2]; 24 h, 1.5625 µM, untreated 165925): 130562 RLU; RLU Average, trypomastigote viability ([2]; 24 h, 3.125 µM, untreated 165925): 103284 RLU; RLU Average, trypomastigote viability ([2]; 24 h, 6.25 µM, untreated 165925): 45263 RLU; RLU Average, trypomastigote viability ([2]; 24 h, 12.5 µM, untreated 165925): 26648 RLU; RLU Average, trypomastigote viability ([2]; 24 h, 25 µM, untreated 165925): 23620 RLU; RLU Average, trypomastigote viability ([2]; 24 h, 50 µM, untreated 165925): 23277 RLU; RLU Average, trypomastigote viability ([2]; 48 h, 0.0976562 µM, untreated 141819): 140243 RLU; RLU Average, trypomastigote viability ([2]; 48 h, 0.195312 µM, untreated 141819): 138438 RLU; RLU Average, trypomastigote viability ([2]; 48 h, 0.390625 µM, untreated 141819): 137289 RLU; RLU Average, trypomastigote viability ([2]; 48 h, 0.78125 µM, untreated 141819): 133179 RLU; RLU Average, trypomastigote viability ([2]; 48 h, 1.5625 µM, untreated 141819): 131008 RLU; RLU Average, trypomastigote viability ([2]; 48 h, 3.125 µM, untreated 141819): 112009 RLU; RLU Average, trypomastigote viability ([2]; 48 h, 6.25 µM, untreated 141819): 31326 RLU; RLU Average, trypomastigote viability ([2]; 48 h, 12.5 µM, untreated 141819): 8227 RLU; RLU Average, trypomastigote viability ([2]; 48 h, 25 µM, untreated 141819): 5426 RLU; RLU Average, trypomastigote viability ([2]; 48 h, 50 µM, untreated 141819): 4626 RLU; RLU Average, trypomastigote viability ([2]; 72 h, 0.0976562 µM, untreated 100126): 97547 RLU; RLU Average, trypomastigote viability ([2]; 72 h, 0.195312 µM, untreated 100126): 99515 RLU; RLU Average, trypomastigote viability ([2]; 72 h, 0.390625 µM, untreated 100126): 99635 RLU; RLU Average, trypomastigote viability ([2]; 72 h, 0.78125 µM, untreated 100126): 98868 RLU; RLU Average, trypomastigote viability ([2]; 72 h, 1.5625 µM, untreated 100126): 97232 RLU; RLU Average, trypomastigote viability ([2]; 72 h, 3.125 µM, untreated 100126): 91895 RLU; RLU Average, trypomastigote viability ([2]; 72 h, 6.25 µM, untreated 100126): 17556 RLU; RLU Average, trypomastigote viability ([2]; 72 h, 12.5 µM, untreated 100126): 4224 RLU; RLU Average, trypomastigote viability ([2]; 72 h, 25 µM, untreated 100126): 2493 RLU; RLU Average, trypomastigote viability ([2]; 72 h, 50 µM, untreated 100126): 1583 RLU; EC50 ([2]; 24 h): 3.29 µM; EC50 ([2]; 48 h): 4.45 µM; EC50 ([2]; 72 h): 4.77 µM; EC90/EC50 ([2]; 24 h): 3.20; Hill slope ([2]; 24 h): 2.11; EC90/EC50 ([2]; 48 h): 1.72; Hill slope ([2]; 48 h): 4.10; Hill slope ([2]; 48 h, listed as C): 4.1; EC90/EC50 ([2]; 48 h, listed as strasseriolide C): 1.7; EC90/EC50 ([2]; 72 h): 1.42; Hill slope ([2]; 72 h): 6.31; Hill slope ([2]; 72 h, listed as C): 6.3; EC90/EC50 ([2]; 72 h, listed as strasseriolide C): 1.4; inhibition at 0.00152588 µM [3]: 3.17%
